Among the data in PubChem BioAssay AID2039 (NMMLSC, 2009) are EC50 and Ki values, retold here.

The term EC50 denotes the midpoint of the concentration-response curve. As a reminder, the Ki is a dissociation constant, usually derived from enzyme kinetics or from competition with a known ligand. Lower therefore signals a stronger hold on the target.

The target of this assay is Ras-related C3 botulinum toxin substrate 1 (Homo sapiens) (UniProt P63000). The experiment in a line: activated mutant Rac1 GTP binding inhibitors, SAR follow-up, biochemical, additional analogs, multiplex bead flow cytometry (AID 2039). The following applies: Multiplex flow cytometry bead GTP-binding assay; for Ki: measured here: Ki for Rac1 nucleotide binding. On the technique in general: A flow cytometer gives signals particle by particle.

The structures appear in SMILES notation. The source made the active and inactive calls. No rule for the calls is given here.

As for `N#Cc1c(-c2ccc(Cl)cc2)c(C(=O)c2ccccc2)n(S(=O)(=O)c2ccc([N+](=O)[O-])cc2)c1N`, the EC50 result is “inactive” and the inhibition constant Ki is 0.54 µM.

As to `O=Nc1c(-c2c(O)[nH]c3c(F)cccc23)[nH]c2ccccc12`, the EC50 result was “inactive” and the Ki came out at 2.87 µM.

Turning to `O=C1C(c2c(O)[nH]c3ccc(Br)cc23)=Nc2ccccc21`, the EC50 entry was “inactive” and the Ki was found to be 1.11 µM.

As for `CCCCS(=O)(=O)n1c(N)c(C#N)c(-c2cc(OC)c(OC)c(OC)c2)c1C(=O)c1ccccc1`, the EC50 result is “inactive”.

In the case of `COc1ccc2cc(CC(=O)O)ccc2c1`, the EC50 result is “inactive”.

For the compound `COc1ccc(S(=O)(=O)n2c(N)c(C#N)c(-c3ccccc3)c2C(=O)c2ccc(Br)cc2)cc1`, the EC50 result was “inactive”.

With `O=Nc1c(-c2c(O)[nH]c3ccc(Br)cc23)[nH]c2ccccc12`, the EC50 entry is “inactive” and the Ki amounted to 2.98 µM.

Take `O=Nc1c(-c2c(O)[nH]c3c(Cl)cccc23)[nH]c2ccccc12`: the EC50 result is “inactive”.

As for `COc1ccc(S(=O)(=O)n2c(N)c(C#N)c(-c3cc(Br)c(OC)c(OC)c3)c2C(=O)c2ccccc2)cc1`, the EC50 entry was “inactive”.

As for `O=C1Nc2cccc(Br)c2/C1=C1/Cc2ccccc2C1=O`, the EC50 entry is “inactive”.

As to `O=C1Nc2ccccc2/C1=C1/Cc2ccccc2C1=O`, the EC50 result was “inactive”.

On to `CC1=C(CC(=O)O)c2cc(F)ccc2/C1=C/c1ccc(S(C)=O)cc1` (configuration not stated), for which the EC50 entry was “inactive” and the Ki was found to be 4.24 µM.

For the compound `O=C1Nc2c(Br)cccc2/C1=C1/Cc2ccccc2C1=O`, the EC50 entry was “inactive”.

For the compound `O=C(C#Cc1ccccc1)c1ccc([N+](=O)[O-])cc1`, the concentration for a half-maximal effect (EC50) was 8.37 µM and the Ki is 0.76 µM.

With `COc1cc(-c2c(C#N)c(N)n(S(=O)(=O)c3c(C(C)C)cc(C(C)C)cc3C(C)C)c2C(=O)c2ccccc2)cc(OC)c1OC`, the EC50 result was “inactive” and the inhibitory constant (Ki) worked out at 6.05 µM.

Take `O=C1C(c2c(O)[nH]c3c(Br)cccc23)=Nc2ccccc21`: the EC50 entry was “inactive” and the inhibition constant Ki turned out to be 2.51 µM.

Consider `O=Nc1c(-c2c(O)[nH]c3ccccc23)[nH]c2ccccc12`, for which the EC50 result is “inactive”.

Consider `O=C(C#Cc1ccccc1)c1ccccc1`, for which the EC50 result is “inactive”.

In the case of `O=C(C#Cc1ccccc1)c1ccccc1[N+](=O)[O-]`, the EC50 entry is “inactive”.

Regarding `CC(C(=O)O)c1cccc(Oc2ccccc2)c1` (configuration not stated), the EC50 result was “inactive”.

For the compound `O=C1N=c2ccccc2=C1c1[nH]c(=O)[nH]c1O`, the EC50 entry is “inactive” and the inhibition constant Ki turned out to be 1.06 µM.

Consider `O=C1N=c2ccccc2=C1c1[nH]c(=S)[nH]c1O`, for which the EC50 entry is “inactive” and the inhibition constant (Ki) worked out at 0.64 µM.

As for `CSc1ccc(/C=C2/C(C)=C(CC(=O)O)c3cc(F)ccc32)cc1`, the EC50 result was “inactive” and the inhibition constant Ki amounted to 4.85 µM.

`O=Nc1c(-c2c(O)[nH]c3c(Br)cccc23)[nH]c2ccccc12`: the EC50 result was “inactive”.

As for `COc1ccc(-c2c(C#N)c(N)n(S(C)(=O)=O)c2C(=O)c2ccccc2)cc1Br`, the EC50 entry is “inactive”.

As to `O=C1C(c2c(O)[nH]c3c(F)cccc23)=Nc2ccccc21`, the EC50 entry is “inactive”.

On to `COc1ccc(S(=O)(=O)n2c(N)c(C#N)c(-c3cncc(Br)c3)c2C(=O)c2ccccc2)cc1`, for which the EC50 result is “inactive” and the inhibition constant (Ki) amounted to 1.06 µM.

As to `CC(=O)Oc1ccccc1C(=O)O`, the EC50 entry was “inactive”.

With `O=C1C(c2c(O)[nH]c3ccccc23)=Nc2ccccc21`, the EC50 result was “inactive”.

In the case of `O=C1C(c2c(O)[nH]c3c(Cl)cccc23)=Nc2ccccc21`, the EC50 result was “inactive”.
